Data from patent US20230248740A1, “Pharmaceutical Composition Comprising Compound Capable of Penetrating Blood-Brain Barrier as Effective Ingredient for Preventing or Treating Brain Cancer” (DAEGU-GYEONGBUK MEDICAL INNOVATION FOUNDATION, priority 2017, published 2023).
Values belong to the molecule of their own block, whether it stands above or below them.

How the values were obtained:
[1] = system: 448T cells; assay: Growth inhibitory activity on brain tumor cells in animal model, 448T cells injected into the brain; type: in vivo, Balb/c-nude mouse; details: orally, 60 mg/kg
Protocol: (§1) More specifically, 1.0x10^4 NCC01 cells, a brain-tumor-patient-derived cell line, were injected into the brain of a Balb/c-nude mouse model, and after 3 days, the compound of Example 12 was orally administered at a dose of 10 mg/kg or 60 mg/kg. After administration of the compound, the survival rate of the mice based on the survival period was determined, and the size of the tumors generated in the mice was measured using MRI. Here, the group not treated with the compound of Example was used as a vehicle.
Specifically, the experiment was conducted in the same manner under the same conditions as in Experimental Example 14, with the exception that 448T cells were used in lieu of NCC01 cells, and the compound of each of Examples 12, 20 and 21 was orally administered at a dose of 60 mg/kg.

[2] = system: NCC01 cells; assay: Growth inhibitory activity on brain tumor cells in animal model, NCC01 cells injected into the brain; type: in vivo, Balb/c-nude mouse; details: orally
Protocol: as §1

[3] = biological target: T1, LRRK2 protein (Homo sapiens, UniProt Q5S007); assay: LRRK2 protein phosphorylation inhibitory activity, Western blotting, NCC01 cells; type: cell-based, human (brain-tumor-patient-derived cell line); details: after 1 day
T1 construct: endogenous in cells; host or cells: NCC01 (brain-tumor-patient-derived cell line)
T1 sequence (Q5S007 whole entry): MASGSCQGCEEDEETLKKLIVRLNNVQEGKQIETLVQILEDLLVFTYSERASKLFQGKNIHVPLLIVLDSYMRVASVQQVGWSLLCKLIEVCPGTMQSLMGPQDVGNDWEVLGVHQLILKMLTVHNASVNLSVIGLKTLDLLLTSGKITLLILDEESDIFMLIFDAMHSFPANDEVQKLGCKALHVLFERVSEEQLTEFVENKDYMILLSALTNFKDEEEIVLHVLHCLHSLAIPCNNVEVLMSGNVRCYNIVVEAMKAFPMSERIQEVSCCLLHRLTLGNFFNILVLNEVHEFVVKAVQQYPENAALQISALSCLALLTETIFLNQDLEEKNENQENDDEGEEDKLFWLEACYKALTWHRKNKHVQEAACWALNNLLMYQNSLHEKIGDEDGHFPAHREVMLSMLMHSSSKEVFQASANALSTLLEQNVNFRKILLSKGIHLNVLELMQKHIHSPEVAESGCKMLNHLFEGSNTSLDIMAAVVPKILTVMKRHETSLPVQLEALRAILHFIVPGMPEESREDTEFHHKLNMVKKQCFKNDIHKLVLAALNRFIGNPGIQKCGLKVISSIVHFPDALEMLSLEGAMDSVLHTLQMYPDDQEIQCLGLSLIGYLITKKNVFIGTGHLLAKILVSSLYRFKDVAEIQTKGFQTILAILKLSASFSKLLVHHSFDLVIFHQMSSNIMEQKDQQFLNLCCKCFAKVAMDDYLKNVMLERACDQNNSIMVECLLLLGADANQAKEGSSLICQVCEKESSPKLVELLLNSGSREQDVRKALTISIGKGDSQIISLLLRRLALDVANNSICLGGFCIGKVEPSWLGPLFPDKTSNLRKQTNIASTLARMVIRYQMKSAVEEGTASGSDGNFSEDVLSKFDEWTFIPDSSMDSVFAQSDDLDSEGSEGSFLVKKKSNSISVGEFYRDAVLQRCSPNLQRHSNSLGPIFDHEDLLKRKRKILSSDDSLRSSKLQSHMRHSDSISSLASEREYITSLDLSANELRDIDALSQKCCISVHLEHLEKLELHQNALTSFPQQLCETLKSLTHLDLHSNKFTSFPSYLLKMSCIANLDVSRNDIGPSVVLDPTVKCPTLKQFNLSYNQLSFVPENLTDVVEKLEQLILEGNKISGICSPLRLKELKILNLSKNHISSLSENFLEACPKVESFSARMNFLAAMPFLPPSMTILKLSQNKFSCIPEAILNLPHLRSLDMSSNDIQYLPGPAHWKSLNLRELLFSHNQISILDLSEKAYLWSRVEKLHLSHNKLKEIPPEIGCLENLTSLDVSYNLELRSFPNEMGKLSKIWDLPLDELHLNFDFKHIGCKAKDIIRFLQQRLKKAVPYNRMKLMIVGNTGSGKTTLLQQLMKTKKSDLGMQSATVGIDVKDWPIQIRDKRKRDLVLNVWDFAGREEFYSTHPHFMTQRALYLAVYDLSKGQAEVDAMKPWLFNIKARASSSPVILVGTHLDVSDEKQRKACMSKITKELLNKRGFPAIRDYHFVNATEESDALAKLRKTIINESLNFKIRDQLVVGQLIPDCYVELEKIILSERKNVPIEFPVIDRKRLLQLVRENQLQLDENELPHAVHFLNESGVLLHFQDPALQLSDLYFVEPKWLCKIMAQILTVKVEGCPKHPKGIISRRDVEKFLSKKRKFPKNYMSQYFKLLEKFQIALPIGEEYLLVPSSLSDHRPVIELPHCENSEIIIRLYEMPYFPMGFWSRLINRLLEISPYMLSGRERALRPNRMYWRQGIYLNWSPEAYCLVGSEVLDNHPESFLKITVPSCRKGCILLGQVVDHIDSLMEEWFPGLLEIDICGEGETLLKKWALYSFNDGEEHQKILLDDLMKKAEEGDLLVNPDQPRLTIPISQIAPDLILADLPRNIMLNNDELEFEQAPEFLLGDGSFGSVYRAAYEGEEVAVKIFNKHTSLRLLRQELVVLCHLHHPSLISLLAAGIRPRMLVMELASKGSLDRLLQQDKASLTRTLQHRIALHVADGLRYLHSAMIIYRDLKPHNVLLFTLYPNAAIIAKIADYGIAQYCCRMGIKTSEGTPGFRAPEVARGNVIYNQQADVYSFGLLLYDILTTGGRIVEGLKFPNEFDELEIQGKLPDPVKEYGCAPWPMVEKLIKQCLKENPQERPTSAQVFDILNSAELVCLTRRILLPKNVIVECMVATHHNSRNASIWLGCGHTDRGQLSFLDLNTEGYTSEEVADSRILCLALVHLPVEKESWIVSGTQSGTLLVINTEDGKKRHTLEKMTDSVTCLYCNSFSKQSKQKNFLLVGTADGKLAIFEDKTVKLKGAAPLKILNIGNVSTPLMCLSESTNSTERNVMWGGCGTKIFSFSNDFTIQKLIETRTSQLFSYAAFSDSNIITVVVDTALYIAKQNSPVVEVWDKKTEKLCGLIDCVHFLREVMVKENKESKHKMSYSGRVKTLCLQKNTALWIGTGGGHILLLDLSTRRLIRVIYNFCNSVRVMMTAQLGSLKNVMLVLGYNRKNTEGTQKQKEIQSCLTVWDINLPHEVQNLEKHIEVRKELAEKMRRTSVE
Protocol: In order to evaluate drug efficacy in vitro, a Western blotting experiment was performed using brain-tumor-patient-derived cell line NCC01 cells.
(§2) Here, the group not treated with the compound of Example was used as a vehicle.
as §2
Here, the group not treated with the compound of Example was used as a vehicle. […]
More specifically, 7.5x10^5 to 1.0x10^6 cells were treated with the compound of Comparative Example at a concentration of 0.1 or 1.0 µM, and after 1 day, samples were collected and evaluated for LRRK2 protein phosphorylation inhibitory activity through Western blotting. Here, the group not treated with the compound of Example was used as a vehicle.

[4] = biological target: T1, LRRK2 protein; assay: as above; type: cell-based, human (brain-tumor-patient-derived cell line); details: for LRRK2 protein phosphorylation: after 1 day
[5] = system: NCC01 cells; assay: Apoptosis induction activity, FACS, NCC01 cells; type: cell-based, human (brain-tumor-patient-derived cell line); details: 100 nM, after 1 day
Protocol: In order to evaluate whether apoptosis of brain tumor cells is induced by inhibiting LRRK2 protein phosphorylation, an experiment was conducted using FACS (fluorescence-activated cell sorting).
More specifically, 7.5x10^5 to 1.0x10^6 NCC01 cells were treated with the compound of each of Examples 11, 12 and 21 at a concentration of 100 nM, and after 1 day, samples were collected and subjected to FACS, thus assaying the apoptosis induction activity. The group not treated with the compound of Example was used as a control.

[6] = system: TRAP1 (TNF receptor associated protein 1); assay: TRAP1 expression, Western blotting, brain tumor stem cell line NCC01; type: cell-based, human (brain-tumor-patient-derived cell line); details: NCC01 cells, 100 or 1,000 nM, after 1 day
Protocol: Specifically, brain tumor stem cell line NCC01 cells were added with the compound of Example 12 at a concentration of 100 or 1,000 nM, and after 1 day, changes in the expression of TRAP1 were measured through Western blotting. Here, the group not treated with the compound of Example was used as a vehicle.

[7] = biological target: T1, LRRK2 protein; assay: LRRK2 protein phosphorylation inhibitory activity, Western blotting, 448T cells; type: cell-based, human (brain-tumor-patient-derived cell line); details: after 1 day
Protocol: An experiment was conducted in order to evaluate the in-vitro drug efficacy of the compound of Comparative Example, known as an LRRK2 protein inhibitor.

[8] = system: NCC01 cells; assay: Mitochondrial function, TMRE staining of activated mitochondria, NCC01 cells; type: cell-based, human (brain-tumor-patient-derived cell line); details: after 1 day
Protocol: Specifically, NCC01 cells were treated with the compound of Example 12 at 1 µM, and after 1 day, TMRE (tetramethylrhodamine ethylester) dye for staining activated mitochondria was added thereto to evaluate changes in mitochondrial function. Here, the group not treated with the compound of Example was used as a control.
Specifically, brain tumor stem cell line NCC01 cells were treated with the compound of Example 12 at a concentration of 0.1 or 1 µM, and after 1 day, the mitochondria were stained as described in Experimental Example 9 to assay changes in the function thereof. Here, the group not treated with the compound of Example was used as a vehicle.

[9] = system: NESTIN protein; assay: Expression of NESTIN protein (cancer stem cell marker), Western blotting, NCC01 cells; type: cell-based, human (brain-tumor-patient-derived cell line); details: 50 to 2,000 nM, after 1 day
Protocol: More specifically, 1.0x10^6 NCC01 cells were treated with the compound of Example 12 at concentrations of 50, 100, 500, 1,000 and 2,000 nM. After 1 day, samples were collected and the expression of NESTIN protein, which is a cancer stem cell marker involved in the intracellular signaling pathway, was measured through Western blotting. Here, the group not treated with the compound of Example was used as a vehicle.

[10] = system: U87MG cells; assay: Therapeutic effect on brain tumor upon co-administration with Avastin, U87MG orthotopic mouse model; type: in vivo, Balb/c-nude mice; details: Example 12 orally 30 mg/kg in combination with Avastin intraperitoneally 10 mg/kg, vs Avastin
Protocol: More specifically, orthotopic mouse models were manufactured using 5-week-old Balb/c-nude mice. U87MG cells (ATCC, USA), a brain tumor cell line, were injected 3.5 mm deep at a position 2.2 mm to the left of and 0.5 mm behind the bregma using a stereotaxic device. 3 days after injection of the cells, mice were divided into three groups of 5 mice per group (a control (vehicle), a group administered with Avastin, and a group administered with the compound of Example 12 and Avastin), and the drug was administered thereto. The compound of Example 12 was orally administered at a dose of 30 mg/kg and Avastin was injected intraperitoneally at a dose of 10 mg/kg.

[11] = system: NCC01 cells; assay: Sphere size under hypoxic conditions with shRNA against the LRRK2 gene, NCC01 cells; type: cell-based, human (brain-tumor-patient-derived cell line); details: NCC01 cells exposed to hypoxic conditions
Protocol: (§3) Specifically, NCC01 and 528NS cells were exposed to hypoxic conditions and treated with two kinds of shRNA against the LRRK2 gene, after which changes in the size of spheres were measured. Here, a control was shRNA (shNT) against luciferase.

[12] = system: 528NS cells; assay: Sphere size under hypoxic conditions with shRNA against the LRRK2 gene, 528NS cells; type: cell-based; details: 528NS cells exposed to hypoxic conditions
Protocol: as §3

[13] = 100 or 1,000 nM, compared to the vehicle

Molecule: C[C@@H]1CN(c2cc(-c3n[nH]c4ccc(OC5(C)CC5)cc34)ncn2)C[C@H](C)O1 [Example 20, (2S,6R)-2,6-Dimethyl-4-(6-(5-(1-Methylcyclopropoxy)-1H-Indazol-3-yl)Pyrimidin-4-yl)Morpholine]
- tumor at the position to which the 448T cells were injected [1]: no tumor was observed

Molecule: CNc1nc(Nc2ccc(C(=O)N3CCOCC3)cc2OC)ncc1C(F)(F)F [Example 12, (3-Methoxy-4-(4-(Methylamino)-5-(Trifluoromethyl)Pyrimidin-2-Ylamino)Phenyl)(Morpholino)Methanone]
- tumor at the position to which the NCC01 cells were injected (MRI) ([2]; 10 mg/kg or 60 mg/kg): no tumor was observed
- average survival period of the mice ([2]; 10 mg/kg, vehicle 54 days): 71 days
- survival of all the mice ([2]; 60 mg/kg, vehicle average 54 days): ≥ 100 days
- LRRK2 protein phosphorylation [3, 13]: significantly inhibited
- extent of LRRK2 protein phosphorylation over time ([4]; NCC01 cells, 100 nM, starting 1 day after treatment, samples after 1, 4 and 8 days, reduction continued over time): drastically reduced
- LRRK2 protein phosphorylation ([4]; NCC01 cells, 50, 100, 500, 1,000 and 2,000 nM, concentration-dependent): inhibited
- LRRK2 protein phosphorylation ([4]; NCC01 cells, concentrations of 50 and 100 nM): mostly inhibited
- apoptosis of NCC01 cells [5]: induced
- apoptosis rate relative to the compounds of Examples 11 and 21 [5]: about 3 times
- expression of TRAP1 [6]: inhibited
- LRRK2 protein phosphorylation [7, 13]: significantly inhibited
- LRRK2 protein phosphorylation ([7]; concentration of 50 nM): inhibited most
- fragmentation of nuclei in the cells ([8]; 1 µM): occurred
- degree of color development of the TMRE dye ([8]; 1 µM, vs control): decreased
- activity of the mitochondria present in the brain tumor stem cells ([8]; 0.1 or 1 µM, compared to the control): inhibited
- expression of NESTIN protein [9]: reducing
- tumor at the position to which the 448T cells were injected [1]: no tumor was observed
- therapeutic effect of Avastin on brain tumors (survival) [10]: further significantly increased

Molecule: CNc1nc(Nc2cn(C(C)(C)C#N)nc2C)ncc1C(F)(F)F [Comparative Example, 2-Methyl-2-[3-Methyl-4-[[4-(Methylamino)-5-(Trifluoromethyl)Pyrimidin-2-yl]Amino]Pyrazol-1-yl]Propanenitrile, reference compound]
- LRRK2 protein phosphorylation ([3]; 0.1 or 1.0 µM): did not inhibit
- LRRK2 protein phosphorylation ([7]; 0.1 or 1.0 µM, Examples stated by contrast ('unlike' = inhibited)): did not inhibit

Molecule: LRRK2 shRNA-1: shRNA against the LRRK2 gene, SEQ ID NO: 33 (CCGGCCACAAATTCAACGGAAAGAACTCGAGTTCTTTCCGTTGAATTTGTGGTTTTT)
- sphere size [11]: suppressed
- sphere size [12]: suppressed

Molecule: LRRK2 shRNA-2: shRNA against the LRRK2 gene, SEQ ID NO: 34 (CCGGCCCAAATTGGTGGAACTCTTACTCGAGTAAGAGTTCCACCAATTTGGGTTTTT)
- sphere size [11]: suppressed
- sphere size [12]: suppressed

Continued, in another order:

- LRRK2 protein phosphorylation [3, 13]: significantly inhibited
Molecule: Cn1cc(-c2c[nH]c3ncnc(N4CCOCC4)c23)cc1C#N [Example 22, 1-Methyl-4-(4-Morpholino-7H-Pyrrolo[2,3-d]Pyrimidin-5-yl)-1H-Pyrrole-2-Carbonitrile]

- LRRK2 protein phosphorylation [3, 13]: significantly inhibited
- LRRK2 protein phosphorylation [7, 13]: significantly inhibited
Molecule: CCNc1nc(Nc2cc(F)c(C(=O)N3CCOCC3)cc2OC)ncc1C(F)(F)F [Example 11, (4-(4-(Ethylamino)-5-(Trifluoromethyl)Pyrimidin-2-Ylamino)-2-Fluoro-5-Methoxyphenyl) (Morpholino)Methanone]
- apoptosis of NCC01 cells [5]: induced

- LRRK2 protein phosphorylation [3, 13]: significantly inhibited
- LRRK2 protein phosphorylation [7, 13]: significantly inhibited
Molecule: N#Cc1cccc(-c2c[nH]c3nccc(N4CCOCC4)c23)c1 [Example 21, 3-(4-Morpholino-1H-Pyrrolo[2,3-b]Pyridin-3-yl)Benzonitrile]
- apoptosis of NCC01 cells [5]: induced
- tumor at the position to which the 448T cells were injected [1]: no tumor was observed

- LRRK2 protein phosphorylation [3, 13]: significantly inhibited
- phosphorylated LRRK2 protein ([3]; concentration of 100 nM): detected
- LRRK2 protein phosphorylation [7, 13]: significantly inhibited
Molecule: COc1cc(C(=O)N2CCC(N3CCN(C)CC3)CC2)ccc1Nc1ncc2c(n1)N(C)c1ccccc1C(=O)N2C [Example 10, 2-[(2-Methoxy-4-[[4-(4-Methylpiperazin-1-yl)Piperidin-1-yl]Carbonyl]Phenyl)Amino]-5,11-Dimethyl-5,11-Dihydro-6H-Pyrimido[4,5-b][1,4]Benzodiazepin-6-One]
